Assays:
Format in all cases: cell-based
[1] = tested on: S. saprophyticus ATCC 15305; assay: Deferred antagonism assay, producer S. salivarius M18
Description: (§1) 1-2 producer strain colonies were transferred from a stock plate into 900 μL of suspension solution using a fresh cotton swab. Following this, suspensions were vortexed, and a sample was inoculated onto solid culture media using a fresh cotton swab. The inoculation was a streak that runs diametrically across the agar plate in a 1.5 cm wide strip. The plate was then incubated. Following incubation all visible colonies were removed by swabbing them from the agar surface. The plates were then treated with chloroform by dispensing 2 ml of chloroform onto 4 cm×4 cm piece of cloth and sealing the inverted agar plate on top for 30 minutes. The plates were then air dried for 30 minutes following chloroforming. 1-2 indicator strain colonies were then transferred from a stock plate into complementary suspension solution. The suspensions were then vortexed, and a sample was inoculated onto the same agar surface. These samples were streaked in a perpendicular direction to the initial producer streak.
(§2) Each indicator streak was prepared with fresh a suspension containing cells from a corresponding stock plate containing the indicator strain of interest. Indicator strains suspension samples were transferred using a fresh cotton swab. Results were measured by qualitatively reviewing the subsequent (if any) sizes of the zones of inhibition (ZOI) of indicator strain colony growth. A positive result is when there is a distinctive reduction or complete inhibition of indicator colony growth on the culture medium.
(§3) CABCa agar plates containing various concentrations of saccharide were prepared according to the methods described in Method 1. Producer strains were transferred from stock agar plates into 900 μL THB using a fresh cotton swab. A plastic spread plater was cut to approximately 1.2 cm width and then dipped into ethanol and left to air dry to ensure sterility. A 100 μL sample of the producer strain suspension was then dispensed onto the agar surface in a straight line running diametrically across the agar surface in (approximately) 20 μL spots. The spots were spaced approximately 1.5 cm apart from each other. The plastic spreader was then used to evenly distribute the spots across the agar surface in a 1.5 cm wide strip. This step was taken to ensure an even producer streak was inoculated onto the agar surface and provided an approximate measure of the initial inoculum concentration. Separate plastic spreaders were used for samples containing different producer strains. The samples were left to soak into the agar surface until there was no visible liquid remaining on the agar surface (approximately 20 minutes). Following producer streak preparations, the deferred antagonism assay protocol was followed as per Method 2. Results were recorded by measuring the size of the zone of inhibition (ZOI) in mm.
(§4) A dose response assay was carried out according to method 3 above, except a 1.2 cm streak was used. For the individual saccharide testing the pH of the producer streak was adjusted after the growth of producer to change the acidic conditions.
(§5) A deferred antagonism assay was conducted using K12 or M18 raw ingredient suspended in Todd Hewitt broth (THB). This was spread as a 1.2 cm streak containing approximately 1-2×10^6 cfu down the middle of a CABCa control or CABCa galactose supplemented test plate. After 18 hrs growth at 37° C. with 5% CO2, bacterial growth was removed, and the pH of the agar in the initial streak was measured and adjusted to a pH of 6.5-7.5 using 0.5M sodium carbonate pH11 before sterilizing the agar surface using chloroform vapor. Bacterial test strains were suspended in i-THB before being swabbed across the plates perpendicular to the initial streak. Plates were incubated for a further 18 hrs incubation at 37° C. with 5% CO2 before measuring (mm) any zones of inhibition for each test strain, […]

[2] = tested on: S. pneumoniae D39; assay: as above
Description: as §1, §2, §3, §4, §5

[3] = tested on: S. pyogenes 71-698; assay: as above
Description: as §1, §2, §3, §4, §5

[4] = tested on: indicator bacterial test strains; assay: Inhibitory activity of freeze dried raw ingredient powder, K12; conditions: galactose 0.5% w/w; raffinose 2.5% w/w; or combination
Description: Method: The amount of raffinose and galactose used was calculated based on the volume of the area of the producer streak, (which was calculated to be 4.25 g) to allow for the absorption of the saccharides into the agar. Based on this, amount of 0.021 g (i.e. 0.5% w/w galactose of 4.25 g agar volume) of galactose, 0.11 g (i.e 2.5% w/w) of raffinose and the combination of galactose (0.5% w/w) and raffinose (2.5% w/w) (0.13 g total) were weighed into sterile containers. K12 and/or M18 raw ingredient were suspended and diluted with sterile distilled water to a concentration of 1-2×10^6 cfu/100 μl. Then, […] of K12 only, M18 only, and K12±M18 suspensions were spread as a 1 cm streak down the middle of a CABCa agar plate using a sterile spreader. […] Bacterial growth was then removed using a microscope slide, and the pH of the agar in the producer streak area was measured and adjusted to pH 6.5-7.5 using 0.5M sodium carbonate (pH 11) before surface sterilizing the plates with chloroform vapour. […] Zones of inhibition for each test organism were then measured in mm using a ruler. The amount of raffinose and galactose to be used was calculated based on the volume of the area of the producer streak, (which was calculated to be 4.25 g) to allow for absorption into the agar.

[5] = M18, Raffinose 1.7% wt, pH adjusted
[6] = M18, Raffinose 2.5% wt, pH adjusted
[7] = M18, Raffinose 3.3% wt, pH adjusted
[8] = M18, Raffinose 5% wt, pH adjusted
[9] = M18, Raffinose 10% wt, pH adjusted

OC[C@H]1O[C@H](OC[C@H]2O[C@H](O[C@]3(CO)O[C@H](CO)[C@@H](O)[C@@H]3O)[C@H](O)[C@@H](O)[C@@H]2O)[C@H](O)[C@@H](O)[C@H]1O [Raffinose, D-(+) Raffinose pentahydrate]
sensitivity of S. saprophyticus ATCC 15305 to M18 ([1]; 1.25, 2.5, 5% w/v raffinose added): sensitive
Zone of inhibition S. saprophyticus ATCC 15305 ([1]; M18, Raffinose 1.7% wt): 16 mm
Zone of inhibition S. saprophyticus ATCC 15305 [1, 5]: 15 mm
Zone of inhibition S. saprophyticus ATCC 15305 ([1]; M18, Raffinose 2.5% wt): 17 mm
Zone of inhibition S. saprophyticus ATCC 15305 [1, 6]: 15 mm
Zone of inhibition S. saprophyticus ATCC 15305 ([1]; M18, Raffinose 3.3% wt): 17 mm
Zone of inhibition S. saprophyticus ATCC 15305 [1, 7]: 14 mm
Zone of inhibition S. saprophyticus ATCC 15305 ([1]; M18, Raffinose 5% wt): 14 mm
Zone of inhibition S. saprophyticus ATCC 15305 [1, 8]: 12 mm
Zone of inhibition S. saprophyticus ATCC 15305 ([1]; M18, Raffinose 10% wt): 0 mm
Zone of inhibition S. saprophyticus ATCC 15305 [1, 9]: 0 mm
inhibition by M18 of S. pneumoniae ([2]; 0.5 to 10% w/v raffinose): increase in inhibition
Zone of inhibition S. pneumoniae D39 ([2]; M18, Raffinose 1.7% wt): 3 mm
Zone of inhibition S. pneumoniae D39 [2, 5]: 12 mm
Zone of inhibition S. pneumoniae D39 ([2]; M18, Raffinose 2.5% wt): 10 mm
Zone of inhibition S. pneumoniae D39 [2, 6]: 11 mm
Zone of inhibition S. pneumoniae D39 ([2]; M18, Raffinose 3.3% wt): 7 mm
Zone of inhibition S. pneumoniae D39 [2, 7]: 13 mm
Zone of inhibition S. pneumoniae D39 ([2]; M18, Raffinose 5% wt): 2 mm
Zone of inhibition S. pneumoniae D39 [2, 8]: 12 mm
Zone of inhibition S. pneumoniae D39 ([2]; M18, Raffinose 10% wt): 1 mm
Zone of inhibition S. pneumoniae D39 [2, 9]: 11 mm
inhibition by M18 of S. pyogenes ([3]; 0.5 to 10% w/v raffinose): increase in inhibition
Zone of inhibition S. pyogenes 71-698 [3, 5]: 10 mm
Zone of inhibition S. pyogenes 71-698 ([3]; M18, Raffinose 2.5% wt): 8 mm
Zone of inhibition S. pyogenes 71-698 [3, 6]: 7 mm
Zone of inhibition S. pyogenes 71-698 ([3]; M18, Raffinose 3.3% wt): 8 mm
Zone of inhibition S. pyogenes 71-698 [3, 7]: 7 mm
Zone of inhibition S. pyogenes 71-698 ([3]; M18, Raffinose 5% wt): 5 mm
Zone of inhibition S. pyogenes 71-698 [3, 8]: 5 mm
Zone of inhibition S. pyogenes 71-698 ([3]; M18, Raffinose 10% wt): 0 mm
Zone of inhibition S. pyogenes 71-698 [3, 9]: 0 mm
inhibitory activity of freeze-dried raw ingredient powder of K12 [4]: induced the inhibitory activity

O=C[C@H](O)[C@@H](O)[C@@H](O)[C@H](O)CO [Galactose, D-galactose]
zone of inhibition at 0.5 % strength ([1]; Staphylococcus saprophyticus, ATCC15305, M18, Galactose 0.5% w/w, read-out: Size of zone inhibition normalised to control, S. saprophyticus ATCC 15305): 5 mm
zone of inhibition at 1.25 % strength ([1]; Staphylococcus saprophyticus, ATCC15305, M18, Galactose 1.25% w/w, read-out: Size of zone inhibition normalised to control, S. saprophyticus ATCC 15305): 0 mm
zone of inhibition at 1.7 % strength ([1]; Staphylococcus saprophyticus, ATCC15305, M18, Galactose 1.7% w/w, read-out: Size of zone inhibition normalised to control, S. saprophyticus ATCC 15305): 0 mm
zone of inhibition at 2.5 % strength ([1]; Staphylococcus saprophyticus, ATCC15305, M18, Galactose 2.5% w/w, read-out: Size of zone inhibition normalised to control, S. saprophyticus ATCC 15305): 0 mm
zone of inhibition at 3.3 % strength ([1]; Staphylococcus saprophyticus, ATCC15305, M18, Galactose 3.3% w/w, read-out: Size of zone inhibition normalised to control, S. saprophyticus ATCC 15305): 0 mm
zone of inhibition at 5 % strength ([1]; Staphylococcus saprophyticus, ATCC15305, M18, Galactose 5% w/w, read-out: Size of zone inhibition normalised to control, S. saprophyticus ATCC 15305): 0 mm
zone of inhibition at 0.5 % strength ([2]; Streptococcus pneumoniae, D39, M18, Galactose 0.5% w/w, read-out: Size of zone inhibition normalised to control, S. pneumoniae D39): 8 mm
zone of inhibition at 1.25 % strength ([2]; Streptococcus pneumoniae, D39, M18, Galactose 1.25% w/w, read-out: Size of zone inhibition normalised to control, S. pneumoniae D39): 5 mm
zone of inhibition at 1.7 % strength ([2]; Streptococcus pneumoniae, D39, M18, Galactose 1.7% w/w, read-out: Size of zone inhibition normalised to control, S. pneumoniae D39): 0 mm
zone of inhibition at 2.5 % strength ([2]; Streptococcus pneumoniae, D39, M18, Galactose 2.5% w/w, read-out: Size of zone inhibition normalised to control, S. pneumoniae D39): 6 mm
zone of inhibition at 3.3 % strength ([2]; Streptococcus pneumoniae, D39, M18, Galactose 3.3% w/w, read-out: Size of zone inhibition normalised to control, S. pneumoniae D39): 2 mm
zone of inhibition at 5 % strength ([2]; Streptococcus pneumoniae, D39, M18, Galactose 5% w/w, read-out: Size of zone inhibition normalised to control, S. pneumoniae D39): 0 mm
zone of inhibition at 0.5 % strength ([3]; Streptococcus pyogenes, 71698, M18, Galactose 0.5% w/w, read-out: Size of zone inhibition normalised to control, S. pyogenes 71-698): 19.5 mm
zone of inhibition at 1.25 % strength ([3]; Streptococcus pyogenes, 71698, M18, Galactose 1.25% w/w, read-out: Size of zone inhibition normalised to control, S. pyogenes 71-698): 13.5 mm
zone of inhibition at 1.7 % strength ([3]; Streptococcus pyogenes, 71698, M18, Galactose 1.7% w/w, read-out: Size of zone inhibition normalised to control, S. pyogenes 71-698): 9.5 mm
zone of inhibition at 2.5 % strength ([3]; Streptococcus pyogenes, 71698, M18, Galactose 2.5% w/w, read-out: Size of zone inhibition normalised to control, S. pyogenes 71-698): 16.5 mm
zone of inhibition at 3.3 % strength ([3]; Streptococcus pyogenes, 71698, M18, Galactose 3.3% w/w, read-out: Size of zone inhibition normalised to control, S. pyogenes 71-698): 9.5 mm
zone of inhibition at 5 % strength ([3]; Streptococcus pyogenes, 71698, M18, Galactose 5% w/w, read-out: Size of zone inhibition normalised to control, S. pyogenes 71-698): 9.5 mm
inhibitory activity of freeze-dried raw ingredient powder of K12 [4]: induced the inhibitory activity

— patent US20240390434A1, “PROBIOTIC ENHANCERS AND USES THEREOF” (Blis Technologies Limited, priority 2021, published 2024)
